Experimental findings from US20100249175A1, “Dicationic compounds which selectively recognize G-quadruplex DNA” (priority 2005, published 2010) are described below.

Holding throughout (format): binding
Assay [1] has as its system Tetrahymena telomere, d[(T2G4)4] (SEQ ID NO: 4). Put plainly: CD titration with Tetrahymena telomere. The following applies: HEPES buffer containing 50 mM KCl. The text has this:
(§1) The oligonucleotides d[AG3(T2AG3)3] (SEQ ID NO: 1), d[AG3TG4AG3TG4A] (SEQ ID NO: 2), d[G4(T4G4)3] (SEQ ID NO: 3), d[(T2G4)4] (SEQ ID NO: 4), d[(GC)7] (SEQ ID NO: 5), d[[…]] (SEQ ID NO: 6), d[G2T2G2TGTG2T2G2] (SEQ ID NO: 7), d[[…]] (SEQ ID NO: 8), d[[…]] (SEQ ID NO: 9), d[[…]] (SEQ ID NO: 10), d[[…]] (SEQ ID NO: 11), d[TTAGGGT] (SEQ ID NO: 12), and d[TGGGGT] (SEQ ID NO: 13) were purchased with HPLC purification from Midland Certified Reagent Company (The Midland Certified Reagent Company, Inc., Midland, Tex., USA). The concentration of each DNA sample was determined spectrophotometrically at 260 nm using the nearest neighbor extinction coefficient.
(§2) Stock solutions of individual dicationic polyaryl compounds were prepared in double distilled water and diluted to working concentrations immediately before use with buffer. All measurements were performed at 20° C. in a 10 mM HEPES buffer (pH 7.4) containing 3 mM EDTA and 50 mM KCl, NaCl, or LiCl. Absorbance spectra were obtained on a Varian Cary 300 BIO UV-visible spectrophotometer (Varian, Inc., Palo Alto, Calif., United States of America) in a quartz cell with a 1 cm pathlength. CD spectra were recorded using a Jasco J-810 spectrapolarimeter (Jasco, Inc., Easton, Md., United States of America) in a 1-cm cell using an instrument scanning speed of 50 nm/min with a response time of 1 s. The spectra were averaged over four scans. […]

For assay [2], the system named is d[TGGGGT] (SEQ ID NO: 13). Briefly: CD titration with d[TGGGGT]. Conditions: 50 mM KCl, 10 mM K2HPO4, 0.1 mM EDTA, pH 7.0.
Description: as §1
as §2, with “All measurements were performed at 20° C. in a 10 mM HEPES buffer (pH 7.4) containing 3 mM EDTA and 50 mM KCl, NaCl, or LiCl.” left out, “scans. A buffer baseline scan was collected in the same cuvette and subtracted from the average scan for each sample.” for “scans.”

For assay [3], the system named is human telomeric DNA. Put plainly: Thermal melting (ΔTm) of human telomeric DNA. The following applies: HEPES buffer containing 50 mM KCl monitored at 295 nm (data not shown).

Consider `N=C(N)c1ccc(-c2ccc(-c3ccc(C(=N)N)o3)o2)cc1` [Compound 8, 5′-(4-Amidinophenyl)-2,2′-bifuran-5-carboxamidine], for which the “exciton splitting in CD spectra (in words)” value in assay [1] is recorded as “exhibited exciton splitting”. Moreover, the “induced CD / exciton splitting (in words)” value in assay [2] was “does not show any induced CD or exciton splitting”. Further, the ΔTm result in assay [3] was “approximately 10 °C”.
